# Experimental data from patent US20130137767A1, “Methods and Compositions for Treating Arthritis with Docosahexaenoic Acid” (DSM IP ASSETS B.V., priority 2010, published 2013).
# Key:
# [1] = system: Collagen-Induced Arthritis (CIA); assay: CIA-EE (Example 1): paw, knee and six-joint histopathology; type: in vivo, Male DBA/1O1aHsd mice; conditions: day 45, vs OA-EE placebo, FIG. 4
# Excerpt: Male DBA/1O1aHsd mice (3.5-4 weeks of age) were randomized by weight and enrolled in the study after a three day quarantine in which animals were fed the AlN-93G diet with a modified base fat: 1 part flax seed oil (flax), 9 parts hydrogenated coconut oil (HCOC) and 21 parts high-oleic safflower oil (HO-SAFF). 15 animals were enrolled per study group, with the exception of the No Disease control that had 4 animals. Study groups consisted of:
# The appropriate ethyl esters were blended into the base diet to provide approximately 2500 and 5000 mg/kg polyunsaturated fatty acid (PUFA) per day. The human equivalent doses (HED) were approximately 12 g/day and 22 g/day, respectively. The 2500 mg/kg EE diets contained the following fat blend: 1 part flax, 12 parts HCOC and 23 parts HO-SAFF. The 5000 mg/kg EE diets contained a fat blend consisting of: 1 part flax, 5 parts HCOC and 20 parts HO-SAFF. All study diets provided a total of 7% fat. Animals were fed study diets for approximately 30 days prior to the first collagen injection at day 0 and remained on the diets until study termination (day 45). Animals in the No Disease control and Dexamethasone groups were fed the diet containing OA-EE. Following a second collagen injection on day 21, arthritis severity was scored daily. Blood samples were collected at day 21 and day 45. Joints, 6 per an animal, were collected for histology and pathology on day 45.
# Placebo-treated diseased animals had histopathology changes, consistent with those seen in type II collagen induced arthritis, in most joints, with scores ranging from normal to severe. Microscopic alteration included infiltration of synovium and periarticular tissue with neutrophils and mononuclear inflammatory cells (inflammation), marginal zone pannus and bone resorption and cartilage damage (proteoglycan loss, chondrocyte death and collagen matrix destruction). Four-paw, knee and joint parameters were assigned a quantitative score 0=normal, 1=minimal, 2=mild, 3=moderate, 4=marked, 5=severe and a total score was determined per animal.
# [2] = CIA EE vs. TG (Example 2): serum phospholipid fatty acid levels by FAME analysis; type: in vivo, Male DBA/1O1aHsd mice
# Description: Male DBA/1O1aHsd mice were enrolled, quarantined, and feed study diets following the protocols described in Example 1 (CIA-EE Study). EE and TG oils were blended into the base diet to provide 2500 mg/kg PUFA per day (HED approximately 12 g/day). A single dose of PUFA per day (HED approximately 5 g/day). The 1000 mg/kg DHA-EE dose was equivalent to the amount of DHA administered in the DHA/EPA-EE blend. The fat blend the 2500 mg/kg EE diets consisted of approximately: 1 part flax, 12 parts HCOC and 23 parts HO-SAFF; 1000 mg/kg EE diet: 1 part flax, 12 parts HCOC and 32 parts HO-SAFF; 2500 mg/kg DHASCO® oil diet: 1 part flax, 8 parts HCOC, 17 parts HO-SAFF and 15 parts soybean oil; 2500 mg/kg DHA-S oil diet: 1 part flax, 5 parts HCOC, 16 parts HO-SAFF and 6 parts soybean oil. 2500 mg/kg DHA/EPA (Nordic Naturals fish oil) diet: 1 part flax, 21 parts HCOC, 18 parts HO-SAFF and 13 parts soybean oil. The monounsaturate control animals received a fat blend of 1 part flax, 7 parts HCOC and 25 parts HO-SAFF. All study diets provided a total of 7% fat. Animals in the No Disease control and Dexamethasone groups were fed the diet containing OA-EE. Mice received collagen injections on day 0 and day 21, as described previously. Blood samples were collected at day 21 and day 45. At day 45, joints were collected for histology and pathology.
# Serum phospholipid fatty acid levels were determined by FAME analysis (FIG. 11). Treatment with DHASCO® or DHA-S oil elevated serum DHA levels 3-4 fold (p<0.001), as compared to the monounsaturated (placebo) control. DHA-EE treatment elevated DHA levels 3-5 fold (p<0.001), as compared to the OA-EE (placebo) control. DPAn6-TG and EE elevated DPAn6 levels 3-4 fold (p<0.001), as compared to the monounsaturated or OA-EE (placebo) control. Serum EPA levels were elevated approximately 30 fold (p<0.001) when fish oil or DHA/EPA-EE was administered, as compared to the monounsaturated or OA-EE (placebo) control. Serum EPA levels were also elevated by treatment with DHASCO® (p<0.001), DHA-S (p<0.05), or with DHA-EE (p<0.001), as compared to the monounsaturated or OA-EE (placebo) control. […] Treatment with either DHASCO® or DHA-EE (2500 mg/kg) reduced ARA levels by approximately 90% (p<0.001), as compared to the monounsaturated or OA-EE (placebo) control. […] Serum ARA levels were reduced to a lesser degree by DHA-S (24%, p<0.001), fish oil (37%, p<0.001) and DHA/EPA-EE (49%, p<0.001), as compared to the monounsaturated or OA-EE (placebo) control. Data shown represents 3 pooled animals per group. Means±SD. *p<0.05 ***p<0.001.
smiles,measurement,setting,value
CC/C=C\C/C=C\C/C=C\C/C=C\C/C=C\C/C=C\CCC(=O)OCC [DHA-EE],knee histopathology parameters,[1]; 2500 mg/kg,significantly reduced
same,"paw histopathology parameters (inflammation, pannus, cartilage damage, bone damage)",[1]; 2500 mg/kg,significantly reduced
same,six-joint mean histopathology parameters,[1]; 2500 mg/kg,significantly reduced
same,"paw histopathology parameters (inflammation, pannus, cartilage damage, bone damage)",[1]; 5000 mg/kg,reduced paw histopathology scores
same,six-joint mean histopathology parameters,[1]; 5000 mg/kg,significantly reduced
same,"serum ARA levels, reduction vs OA-EE (placebo) control",[2]; 1000 mg/kg,77%
same,"serum ARA levels, reduction vs monounsaturated or OA-EE (placebo) control",[2]; 2500 mg/kg PUFA,approximately 90%
same,"serum EPA levels, elevation vs monounsaturated or OA-EE (placebo) control",[2]; 2500 mg/kg PUFA (DHA-EE dose not stated),elevated
same,"serum DHA levels, elevation vs OA-EE (placebo) control",[2]; dose not stated (1000 and 2500 mg/kg tested),3-5 fold
